Common to all, as to format: in vivo
Test [1] can be described thus: Single-dose oral administration of free fatty acids to SD rats: food intake. Particulars: male SD rats. As for the experimental part:
Using a 1.5% (by weight) aqueous solution of a fatty acid ester of glycerol (RYOTO® POLYGLYESTER; product of Mitsubishi-Kagaku Foods Corporation) as a solvent, a free fatty acid form of palmitoleic acid (C16:1), a free fatty acid form of palmitic acid (C16:0), a free fatty acid form of oleic acid (C18:1), a free fatty acid form of lauric acid (C12:0), a free fatty acid form of decenoic acid (C10:1), and a free fatty acid form of linoleic acid (C18:2), all being products of Sigma, were added to the solvent and uniformly emulsified by sonication in an ice bath to thereby prepare dosing samples.
Male Sprague-Dawley rats (hereinafter referred to as SD rats) were used in the experiment. Nine-week-old SD rats (Japan SLC, Inc.) were purchased and preliminarily reared for a week in individual cages. During the preliminary rearing period, the animals were allowed free access to the solid feed Labo MR Stock (Nosan Corporation) and distilled water through water bottles.
After the preliminary rearing, the 10-week-old SD rats were divided into the following seven groups (10 animals per group) considering their body weight: a control group administered with only the solvent (hereinafter referred to as “control group”); a group administered with palmitoleic acid (C16:1) (hereinafter “C16:1 administered group”); a group administered with palmitic acid (C16:0) (hereinafter “C16:0 administered group”); a group administered with oleic acid (C18:1) (hereinafter “C18:1 administered group”); a group administered with lauric acid (C12:0) (hereinafter “C12:0 administered group”); a group administered with decenoic acid (C10:1) (hereinafter “C10:1 administered group”); and a group administered with linoleic acid (C18:2) (hereinafter “C18:2 administered groups”); these groups of rats were subjected to the main test. In the main test, the solvent or each fatty acid under test was orally administered in a single dose through a gastric tube on the very day of the experiment. To the control group of SD rats, the solvent was orally administered at a dose of 10 mL/kg per animal. The test subjects, C16:1, C16:0, C18:1, C12:0, C10:1 and C18:2, each taken in an amount of 150 mg or 500 mg, were added to 10 mL of the solvent and emulsified; the emulsion was orally administered to the SD rats in a dose of 10 mL/kg per animal and a measurement was conducted both 30 minutes and an hour later. The amount of food intake (the amount of food supplied immediately after the dosing of sample minus the amount of food at a specified time after the dosing of sample) was measured both 30 minutes and an hour after oral administration of the test sample.

The nature of test [2]: Long-term oral administration of free fatty acids to KKAy mice: food intake and body weight. Particulars: male KKAy mice. As for the experimental part:
Using a 1.5% (by weight) aqueous solution of a fatty acid ester of glycerol (RYOTO®POLYGLYESTER; product of Mitsubishi-Kagaku Foods Corporation) as a solvent, a free fatty acid form of palmitoleic acid (C16:1), a free fatty acid form of palmitic acid (C16:0), a free fatty acid form of gadoleic acid (C20:1), and a free fatty acid form of erucic acid (C22:1), all being products of Sigma with purities of 99% and more, were added to the solvent and uniformly emulsified by sonication in an ice bath to thereby prepare dosing samples.
Male, spontaneously diabetic model mice KKAy/Ta (hereinafter referred to as KKAy mice) were used in the test. Five-week-old KKAy mice (CLEA Japan, Inc.) were purchased and preliminarily reared for a week in individual cages. During the preliminary rearing period, the animals were allowed free access to the solid feed Labo MR Stock (Nosan Corporation) and distilled water through water bottles.
After the preliminary rearing, the 6-week-old KKAy mice were divided into the following five groups (10 animals per group) considering their body weight: a control group administered with only the solvent (hereinafter referred to as “control group”); a group administered with palmitoleic acid (C16:1) (hereinafter “C16:1 administered group”); a group administered with palmitic acid (C16:0) (hereinafter “C16:0 administered group”); a group administered with gadoleic acid (C20:1) (hereinafter “C20:1 administered group”); and a group administered with erucic acid (C22:1) (hereinafter “C22:1 administered group”); these groups of mice were subjected to the main test. In the main test, the mice of each group were reared for 4 weeks under the environment of light (12 hr) and dark (12 hr) cycles as they were allowed free access to the powdered feed Labo MR Stock (Nosan Corporation) and distilled water through water bottles. In the process, the solvent or each fatty acid under test was orally administered through a gastric tube at 10 a.m. every day. […]
During the 4-week rearing period, the amount of food supplied was measured at days 1, 5, 9, 12, 16, 19, 23 and 26 after dosing and the amount of leftover was measured on the next day, with the respective measurements being conducted for each feeder. The amount of daily food intake was calculated from the difference between the values for two consecutive measurements. The “average food intake” is the average of the food intakes as measured on the respective days of measurement. […] The percent body weight gain was calculated by the formula [(final body weight−initial body weight)/initial body weight]×100. The “final body weight” is the body weight as measured after the end of the 4-week rearing period whereas “initial body weight” is the body weight as measured at the start of the test.

For a further test, the system named is CCK mRNA. Put plainly: Small intestine CCK mRNA expression level in SD rats after single oral dose (real-time PCR). The conditions noted are these: male SD rats; an hour after single oral dose 500 mg/kg; versus control group (FIG. 14). The procedure: (§1) Using a 1.5% (by weight) aqueous solution of a fatty acid ester of glycerol (RYOTO® POLYGLYESTER; product of Mitsubishi-Kagaku Foods Corporation) as a solvent, a free fatty acid form of palmitoleic acid (C16:1) and a free fatty acid form of oleic acid (C18:1), both being products of Sigma, were added to the solvent and uniformly emulsified by sonication in an ice bath to thereby prepare dosing samples.
(§2) Male Sprague-Dawley rats (hereinafter referred to as SD rats) were used in the test. Nine-week-old SD rats (Japan SLC, Inc.) were purchased and preliminarily reared for a week in individual cages. […]
(§3) After the preliminary rearing, the 10-week-old SD rats were divided into the following three groups (10 animals per group) considering their body weight: a control group administered with only the solvent (hereinafter referred to as “control group”); a group administered with palmitoleic acid (C16:1) (hereinafter “C16:1 administered group”); and a group administered with oleic acid (C18:1) (hereinafter “C18:1 administered group”); these groups of rats were subjected to the main test. […] With the level of gene expression in the control group taken as unity, the relative expression levels of respective genes in the C16:1 administered group or 18:1 administered group were calculated. […]
A general note: Real-time PCR tracks product formation cycle by cycle.

Another test has as its system cholecystokinin (CCK). Put plainly: Blood cholecystokinin (CCK) level in SD rats after single oral dose (ELISA). The conditions noted are these: male SD rats, versus control group (FIG. 13). As for the experimental part:
as §1, §2, §3
For orientation: An ELISA detects its analyte on a solid surface through an enzyme-linked reagent.

Where [3] appears, read: an hour after single oral dose 150 or 500 mg/kg, comparison with other fatty acids, versus control group (FIG. 11).

From US20160374981A1, “ANORECTIC AGENT” (Nippon Suisan Kaisha, Ltd., priority 2012, published 2016) come the findings set out here.

As to `CCCCCCCCCCCC(=O)O` [C12:0, lauric acid, reference compound], the food intake entry in test [1] (setting [3]) is reported as “no significant drops”.

Regarding `CCCCCCCCCCCCCCCC(=O)O` [C16:0, palmitic acid, reference compound], the “food intake (test for dose-dependency)” value in test [1] (30 minutes after single oral dose 50, 150 or 500 mg/kg, compared with control group and C16:0 administered group (FIG. 7)) was “decreased significantly in a dose-dependent manner”.

For the compound `CCCCCC/C=C\CCCCCCCC(=O)O` [C16:1, palmitoleic acid], the food intake entry in test [2] (300 mg in 10 mL solvent, 10 mL/kg oral every day, 4 weeks, compared with control group (FIGS. 1 and 2)) is recorded as “significant drops in the food intake”; in test [1] (30 minutes after single oral dose 500 mg/kg, compared with control group and C16:0 administered group (FIGS. 5 and 6)), “significant drop in food intake”; in test [1] (30 minutes after single oral dose 150 or 500 mg/kg, compared with control group and C18:1 administered group (FIGS. 8-9)), “significant drops in food intake”; in test [1] (an hour after single oral dose 500 mg/kg, compared with control group and C16:0 administered group (FIGS. 5 and 6)), “significant drop in food intake”; in test [1] (an hour after single oral dose 150 or 500 mg/kg, compared with control group and C18:1 administered group (FIGS. 8, 10)), “significant drops in food intake”; in test [1] (setting [3]), “significant drops in food intake”. Besides, the “percent body weight gain” value in test [2] (4 weeks after administration, compared with control group (FIG. 4)) is “significant drop in the percent body weight gain”. In addition, the “daily averages for the amount of food intake” value in test [2] (daily oral administration, 4 weeks, FIG. 2, P<0.05) is given as “significant drop in the amount of food intake”. The body weight entry in test [2] (daily oral administration, second to fourth week of dosing, compared with control group (FIG. 3)) is on record as “significant drop in body weight”. Further, the “small intestine CCK mRNA expression level” value in the test with CCK mRNA was “increased significantly”. In addition, the “blood CCK level” value with cholecystokinin (CCK) (an hour after single oral dose 500 mg/kg) was “increased significantly”.

Take `CCCCC/C=C\C/C=C\CCCCCCCC(=O)O` [C18:2, linoleic acid, reference compound]: in test [1] (setting [3]), the food intake entry was “no significant drops”.

Regarding `CCCCCCCC/C=C\CCCCCCCC(=O)O` [oleic acid, reference compound], the “blood CCK level” value in the test with cholecystokinin (CCK) (an hour after single oral dose 150 or 500 mg/kg) is on record as “no significant elevation”.

For the compound “decenoic acid [C10:1, reference compound]”, the food intake entry in test [1] (setting [3]) was “no significant drops”.
